Test results reported in patent publication US12643912B2, “Macrocyclic compounds, a process for their preparation and pharmaceutical compositions containing them” (LES LABORATOIRES SERVIER, priority 2020, dated 2026).

system: Nrf2 (Keap1-NRF2 nuclear translocation); assay: U2OS translocation assay (PathHunter U2OS Keap1-NRF2 Nuclear Translocation Cell Line); assay type: cell-based; conditions: Homo sapiens, U2OS, 3 h, read-out: CELLULAR U2OS EC50 (nM), U2OS Keap1-NRF2 nuclear translocation cells, 3 h incubation, luminescence, normalized between 1% DMSO and 10 μM andrographolide
Description: EXAMPLE 84: U2OS—TRANSLOCATION ASSAY
U2OS cell have been stably transduced using MMLV-derived retroviral vector, to overexpress Nrf2-Enzyme Donor fusion protein, and Acceptor Enzyme in the nucleus (PathHunter® U2OS Keap1-NRF2 Nuclear Translocation Cell Line, Ref.93-0821C3, DiscoverX).
PathHunter U2OS cells were grown in Minimum Essential Medium (MEM) (Ref.30-2003, ATCC), 10% FBS (Ref.P30-193306, PanBiotech), 500 μg/ml Geneticine, 250 μg/ml hygromycine, 0.25 μg/ml puromycine (10131-027, 10687-010 and Ref.A1113802 respectively, Life Technologies).
The night before experiment, cells were harvested using Tryple Xpress (Ref.126905, Bibco) for 5 min at 37° C., resuspended in Opti-MEM™ (Ref.31985-047, Gibco), 1% FBS (Ref.P30-193306, PanBiotech) and then plated into 384 wells plates (Ref.6007680, Perkin Elmer) at the density of 7 500 cells/well in 20 μl. Cell are stored over night at 37° C., 5% CO2 until used. Compounds in 100% DMSO (0.315 μl/well) were resuspended in 20 μl MEM, 1% FBS, 3.4% DMSO. Compounds and andrographolide (10 μM final concentration; Ref.365645-500MG, Aldrich)) as positive control, were dispensed on cell, 5 μl /well, and then incubated for 3 h at 37° C. and 5% CO2. After incubation, Path hunter reagents were dispensed on cells (12 μl /well, Ref.93-0001, DiscoverX) and incubated for 60 min at room temperature in the dark.
Then, luminescence signal was measured using multimodal reader (Pherastar, BMG Labtech). Data were normalized between 1% DMSO (basal signal) and 10 μM andrographolide (positive signal) and analyzed using Activity Base software.

Row | SMILES | EC50 [nM]
1 | Cc1ccc2cc1[C@@H](C)N1Cc3cc(ccc3OS1(=O)=O)OC[C@@H](O)CCn1nnc3c(C)c(ccc31)[C@@H]2CC(=O)O [Example 46b, [(2R,8RS,19S)-19-hydroxy-2,4,31-trimethyl-27,27-dioxo-21,26-dioxa-27λ^6-thia-1,14,15,16-tetraazahexacyclo[20.5.3.1^3,70.1^9,130.0^12,160.0^25,29]dotriaconta-3(32),4,6,9(31),10,12,14,22,24,29-decaen-8-yl]acetic acid] | 792
2 | Cc1ccc2cc1CN1Cc3cc(ccc3OS1(=O)=O)OCCCCn1nnc3c(C)c(ccc31)[C@H]2CC(=O)Nc1cccnc1 [Example 80a, 2-[(8S)-4,31-Dimethyl-27,27-dioxo-21,26-dioxa-27λ^6-thia-1,14,15,16-tetraazahexacyclo[20.5.3.1^3,70.1^9,130.0^12,160.0^25,29]dotriaconta-3(32),4,6,9(31),10,12,14,22,24,29-decaen-8-yl]-N-(pyridin-3-yl)acetamide] | 596
3 | Cc1ccc2cc1[C@@H](C)N1Cc3cc(cc(C)c3OS1(=O)=O)OCCCCn1nnc3c(C)c(ccc31)[C@@H]2CC(=O)O [Example 29a, [(2R,8R)-2,4,24,31-Tetramethyl-27,27-dioxo-21,26-dioxa-27λ^6-thia-1,14,15,16-tetraazahexacyclo[20.5.3.1^3,70.1^9,130.0^12,160.0^25,29]dotriaconta-3(32),4,6,9(31),10,12,14,22,24,29-decaen-8-yl]acetic acid] | 440
4 | Cc1ccc2cc1CN1Cc3cc(ccc3OS1(=O)=O)OCCSCCn1nnc3c(C)c(ccc31)C2CC(=O)O (stereo not shown) [Example 63b, [4,32-Dimethyl-28,28-dioxo-22,27-dioxa-19,28λ^6-dithia-1,14,15,16-tetraazahexacyclo[21.5.3.1^3,70.1^9,130.0^12,160.0^26,30]tritriaconta-3(33),4,6,9(32),10,12,14,23,25,30-decaen-8-yl]acetic acid] | 1220
5 | Cc1ccc2cc1CN1Cc3cc(ccc3OS1(=O)=O)OCCCCn1nnc3c(C)c(cc(Br)c31)[C@@H]2CC(=O)O [Example 48, [(8R)-11-Bromo-4,31-dimethyl-27,27-dioxo-21,26-dioxa-27λ^6-thia-1,14,15,16-tetraazahexacyclo[20.5.3.1^3,70.1^9,130.0^12,160.0^25,29]dotriaconta-3(32),4,6,9(31),10,12,14,22,24,29-decaen-8-yl]acetic acid] | 198
6 | Cc1ccc2cc1CN1Cc3cc(ccc3OS1(=O)=O)OCCCCn1nnc3c(C)c(ccc31)[C@@H]2CC(=O)Nc1cncnc1 [Example 79a, 2-[(8R)-4,31-Dimethyl-27,27-dioxo-21,26-dioxa-27λ^6-thia-1,14,15,16-tetraazahexacyclo[20.5.3.1^3,70.1^9,130.0^12,160.0^25,29]dotriaconta-3(32),4,6,9(31),10,12,14,22,24,29-decaen-8-yl]-N-(pyrimidin-5-yl)acetamide] | 1120
7 | Cc1ccc2cc1CN1Cc3cc(ccc3OS1(=O)=O)OCCC(c1ccc(C(F)(F)F)cc1)Cn1nnc3c(C)c(ccc31)C2CC(=O)O (stereo not shown) [Example 65, {4,31-Dimethyl-27,27-dioxo-18-[4-(trifluoromethyl)phenyl]-21,26-dioxa-27λ^6-thia-1,14,15,16-tetraazahexacyclo[20.5.3.1^3,70.1^9,130.0^12,160.0^25,29]dotriaconta-3(32),4,6,9(31),10,12,14,22,24,29-decaen-8-yl}acetic acid] | 699
8 | Cc1c2ccc3c1nnn3CCCCOc1ccc3c(c1)CN([C@H](C)c1cc(ccc1Cl)[C@H]2CC(=O)O)S(=O)(=O)O3 [Example 64b, [(2R,8R)-4-chloro-2,31-dimethyl-27,27-dioxo-21,26-dioxa-27λ^6-thia-1,14,15,16-tetraazahexacyclo[20.5.3.1^3,70.1^9,130.0^12,160.0^25,29]dotriaconta-3(32),4,6,9(31),10,12,14,22,24,29-decaen-8-yl]acetic acid] | 231
9 | COc1ccc2cc1CN1Cc3cc(ccc3OS1(=O)=O)OCCOCCn1nnc3c(C)c(ccc31)C2CC(=O)O (stereo not shown) [Example 59b, [4-Methoxy-32-methyl-28,28-dioxo-19,22,27-trioxa-28λ^6-thia-1,14,15,16-tetraazahexacyclo[21.5.3.1^3,70.1^9,130.0^12,160.0^26,30]tritriaconta-3(33),4,6,9(32),10,12,14,23,25,30-decaen-8-yl]acetic acid] | 1760
10 | Cc1ccc2cc1CN1Cc3cc(ccc3OS1(=O)=O)OCCn1nnc3c(C)c(ccc31)C2CC(=O)O (stereo not shown) [Example 77a, [4,29-Dimethyl-25,25-dioxo-19,24-dioxa-25λ^6-thia-1,14,15,16-tetraazahexacyclo[18.5.3.1^3,70.1^9,130.0^12,160.0^23,27]triaconta-3(30),4,6,9(29),10,12,14,20,22,27-decaen-8-yl]acetic acid] | 1750

same assay, conditions: read-out: CELLULAR U2OS EC50; U2OS Keap1-NRF2 nuclear translocation cells, 3 h incubation, luminescence, normalized between 1% DMSO and 10 μM andrographolide

Row | SMILES | EC50 [nM]
11 | Cc1ccc2cc1CN1Cc3cc(ccc3OS1(=O)=O)OCC1CCN(CC1)CCn1nnc3c(C)c(ccc31)C2CC(=O)O (single isomer, unassigned) [Example 60b, [4,36-Dimethyl-30,30-dioxo-24,29-dioxa-30λ^6-thia-1,14,15,16,19-pentaazaheptacyclo[23.5.3.2^19,220.1^3,70.1^9,130.0^12,160.0^28,32]heptatriaconta-3(37),4,6,9(36),10,12,14,25,27,32-decaen-8-yl]acetic acid] | > 3160
12 | COc1cc2cc(c1C)CN1Cc3cc(ccc3OS1(=O)=O)OCCCCn1nnc3c(C)c(ccc31)C2CC(=O)O (single isomer, unassigned) [Example 30b, [5-Methoxy-4,31-dimethyl-27,27-dioxo-21,26-dioxa-27λ^6-thia-1,14,15,16-tetraazahexacyclo[20.5.3.1^3,70.1^9,130.0^12,160.0^25,29]dotriaconta-3(32),4,6,9(31),10,12,14,22,24,29-decaen-8-yl]acetic acid] | 2360
13 | Cc1ccc2cc1CN1Cc3cc(ccc3OS1(=O)=O)OCCn1nnc3c(C)c(ccc31)C2CC(=O)O (stereo not shown) [Example 77b, [4,29-Dimethyl-25,25-dioxo-19,24-dioxa-25λ^6-thia-1,14,15,16-tetraazahexacyclo[18.5.3.1^3,70.1^9,130.0^12,160.0^23,27]triaconta-3(30),4,6,9(29),10,12,14,20,22,27-decaen-8-yl]acetic acid] | > 3160
14 | COc1cc2cc(c1C)CN1Cc3cc(ccc3OS1(=O)=O)OCCCCn1nnc3c(C)c(ccc31)C2CC(=O)O (single isomer, unassigned) [Example 30a, [5-Methoxy-4,31-dimethyl-27,27-dioxo-21,26-dioxa-27λ^6-thia-1,14,15,16-tetraazahexacyclo[20.5.3.1^3,70.1^9,130.0^12,160.0^25,29]dotriaconta-3(32),4,6,9(31),10,12,14,22,24,29-decaen-8-yl]acetic acid] | 555
15 | Cc1ccc2cc1CN1Cc3cc(ccc3OS1(=O)=O)OCCCCn1nnc3c(C)c(ccc31)C2C(C)(C)C(=O)O (single isomer, unassigned) [Example 74b, 2-[4,31-Dimethyl-27,27-dioxo-21,26-dioxa-27λ^6-thia-1,14,15,16-tetraazahexacyclo[20.5.3.1^3,70.1^9,130.0^12,160.0^25,29]dotriaconta-3(32),4,6,9(31),10,12,14,22,24,29-decaen-8-yl]-2-methylpropanoic acid] | 756
16 | Cc1ccc2cc1CN1Cc3cc(ccc3OS1(=O)=O)OCC1CCN(CC1)CCn1nnc3c(C)c(ccc31)C2CC(=O)O (single isomer, unassigned) [Example 60a, [4,36-Dimethyl-30,30-dioxo-24,29-dioxa-30λ^6-thia-1,14,15,16,19-pentaazaheptacyclo[23.5.3.2^19,220.1^3,70.1^9,130.0^12,160.0^28,32]heptatriaconta-3(37),4,6,9(36),10,12,14,25,27,32-decaen-8-yl]acetic acid] | 265
